Measured values as given in patent US5026694A, “Platinum complexes with one radiosensitizing ligand” (priority 1989, dated 1991).
Like-named read-outs stand apart in the source and are kept apart here.

What was measured:
[1] = tested on: Chinese hamster ovary (CHO) cells; assay: Toxicity in hypoxic and aerated CHO cells (plating efficiency/survival); assay type: cell-based; set-up: plating efficiency / effect on plating efficiency: dose or concentration left out as unconfirmed; conditions: for order of toxicity of free ligand: free ligands; for toxicity compared with the compounds of the invention: 100 mM/dm^3 experiments; for approximate order of hypoxic toxicity of platinum complexes: hypoxia
Method: The toxicity of the invention compounds with respect to Chinese hamster ovary (CHO) cells was compared in air and in nitrogen induced hypoxia as described by Moore, B. A., et al, Radiation Research (1976) 67:459-478. The radiosensitizing ligands, or cis or transdichlorodiamine platinum II (DDP) or the . bisubstituted platinum complexes, PtCl2 (L)2, were used as controls.
The cells were carried in MEM a medium with 10% fetal calf serum, and plating efficiencies were determined on the seventh day after plating.
In similar experiments at 100 mM/dm^3, MISO and trans-[PtCl2 (miso)2 ] show no toxicity. Survival rates for trans-DDP and monoammine were 0.2 and 0.1 respectively.
Using 100 mM levels, mono-6NQ caused plating efficiency to drop to 0 after an hour, while 6NQ had no effect after 3 hours.

CHO cells = assay: Radiosensitization of CHO cells (enhancement ratio); assay type: cell-based, Chinese hamster; conditions: for ER: Table 1; for radiosensitization, relative effectiveness: cis configuration, various concentrations, FIG. 2
Method: Radiosensitization of CHO cells was determined as described by Moore, B. A., et al, sucra, at 4° C., except that the cells were incubated with complex for 1 hr at 37° C. to allow binding to DNA prior to radiation. A Picker X-ray source (250 kVp, 1.7 mm Cu) was used. As with the toxicity studies, cells were carried, irradiated, and plated in MEM a medium with 10% fetal calf serum, and plating efficiencies were determined on the seventh day after plating. Enhancement ratios (ER) were calculated from the doses required to reduce survival to 1%.

cells = conditions: cited from earlier work
[2] = tested on: L1210 cells, cDDP sensitive line; assay: Toxicity in cisDDP-sensitive L1210 cells; assay type: cell-based; conditions: read-out: ID50 (the source's name)
Source text: (§1) Patients become resistant to cisplatin (cisDDP) and to many related drugs.

[3] = tested on: L1210 cells, cDDP resistant line; assay: Toxicity in cisDDP-resistant L1210 cells (cross-resistance); assay type: cell-based; conditions: for Ratio (ID50 cDDP resistant/cDDP sensitive): L1210 cells
Source text: as §1

KHT sarcoma = assay: Potentiation of cytotoxicity in vivo by hydralazine, KHT sarcoma model
plasmid pSV2-gpt DNA = assay: Binding to DNA by inhibition of restriction enzyme (BamHI) cleavage of plasmid DNA; assay type: biochemical; set-up: inhibition of BamHI cleavage / inhibition of cleavage with BamHI: unit of the concentration uncertain; conditions: for inhibition of cleavage with BamHI: FIG. 3; for binding to DNA, relative: all concentrations, FIG. 8
Method: The ability of the invention compounds to bind DNA was tested using an assay which is based on inhibition of the ability of restriction enzymes to cleave the complexed DNA. The substrate in the assay was the plasmid pSV2-gpt (Mulligan, R., et al Science (1980) 209:1422-1427). After growth in E. coli. this 5.2 kb plasmid was extracted and linearized using PvuII. Cleavage of the extracted linearized segment by BamHI or EcoRI results in two fragments per enzyme. Inhibition of this cleavage by test compounds provides an assay method for binding of the test compounds.
In the assay, DNA (20 mg/ml) in 100 mM Tris-HCl, 1 mM EDTA, pH 8, was treated with the test compounds at approximately 100 mM for 1 hr at 37° C. Unbound drug was then removed using a G-50 Sephadex spin column (Pharmacia).
To 30 mM of the treated DNA, 23.5 ml of a buffer solution containing 0.33 M Tris-acetate, pH 7.9, 0.66 M potassium acetate, 0.10 M dithiothreitol, and 1 mg/ml BSA, along with 10 units of enzyme, were added. Enzyme activity was stopped using 1 ml 0.5 M EDTA after 30 min at 37° C. Tracking 0.25% bromophenol blue, 0.25% xylene cyanol in 30% glycerol water) was added, and 10 ml of the resulting solution loaded onto a 1% agarose gel made with E buffer (0.04 M Tris, 5 mM sodium acetate; 1 mM EDTA, pH 7.8) and subjected to horizontal electrophoresis. The slab gel was stained with aqueous ethidium bromide solution (1 ng/ml) and photographed under UV light.
Inhibition of the restriction enzyme cleavage was assessed qualitatively by noting the relative proportion of bands, or quantitatively by analyzing densitometric scans of the negatives of the recorded pictures.

DNA of CHO cells = assay: Platinum bound to DNA extracted from whole CHO cells, atomic absorption; assay type: cell-based, Chinese hamster; set-up: dose or concentration left out as unconfirmed; conditions: 1-2 hr exposure
Source text: Though the results of this assay were erratic they establish that the Pt complexes cross cell membranes and bind to DNA in mammalian cells.

tumors = conditions: cited from earlier work
[4] = 100 mM/dm^3, cis configuration or ligand alone, dose to reduce survival to 1%
[5] = FIG. 7, cis-mono-4NI and cis-mono-5NI

Nc1ncc([N+](=O)[O-])s1 [ANT, 2-amino-5-nitrothiazole]
order of toxicity of free ligand [1]: 4-nitroimidazole f MISO f ANT f METRO | enhancement ratio (ER) (CHO cells; [4]): 1.25

O=[N+]([O-])c1c[nH]cn1 [4-nitroimidazole]
order of toxicity of free ligand [1]: 4-nitroimidazole f MISO f ANT f METRO | enhancement ratio (ER) (CHO cells; [4]): 1.10

Cc1ncc([N+](=O)[O-])n1CCO [METRO, 1,2-hydroxyethyl-2-methyl-5-nitroimidazole]
order of toxicity of free ligand [1]: 4-nitroimidazole f MISO f ANT f METRO | sensitizing cells to radiation treatment in clinical trials (cells): beneficial effects in sensitizing cells to radiation treatment

COCC(O)Cn1cc[n+]([Pt-2]([Cl])([Cl])[n+]2ccn(CC(O)COC)c2[N+](=O)[O-])c1[N+](=O)[O-] (stereo not drawn) [trans-bis-MISO, trans-[PtCl2 (miso)2]]
toxicity ([1]; 100 mM/dm^3): no toxicity | toxicity compared with the compounds of the invention [1]: somewhat less toxic | ER (CHO cells; 100 mmol/dm^3): 1.2 | sensitization in oxygen (CHO cells): no sensitization

Cc1n(CCO)c([N+](=O)[O-])c[n+]1[Pt-2]([NH3+])([Cl])[Cl] [cis mono METRO]
IC50 [2]: 4.4 mM | Ratio (ID50 cDDP resistant/cDDP sensitive) [3]: 5

O=C(Cn1ccnc1[N+](=O)[O-])NCCO [SR-2508]
sensitizing cells to radiation treatment in clinical trials (cells): beneficial effects in sensitizing cells to radiation treatment

COCC(O)Cn1cc[n+]([Pt-2]([NH3+])([Cl])[Cl])c1[N+](=O)[O-] (centres unmarked) [mono-MISO, PtCl2 (NH3) (misonidazole)]
potentiation by hydralazine (KHT sarcoma; hydralazine 5 mg/kg, FIG. 4): potentiating effects of hydralazine on this compound | dose reduction to achieve equitoxic doses when hydralazine is coadministered (KHT sarcoma; with hydralazine): 4 × | drop in cell survival with combined therapy (KHT sarcoma; with hydralazine, mono-MISO 10 to 300 mg/kg, FIG. 4): approx. 3 logs | radiosensitization, relative effectiveness (CHO cells): somewhat more effective than mono-NI | inhibition of cleavage with BamHI (plasmid pSV2-gpt DNA; approximately 50 mM): At least 10%

Cc1ncc([N+](=O)[O-])n1CCO.N.[Cl][Pt][Cl] [mono-METRO]
approximate order of hypoxic toxicity of platinum complexes [1]: cis-DDP ff trans-mono-MISO f monoammine Z cis-mono-MISO f trans-DDP f mono-METRO Z mono-NI f mono-ANT | radiosensitization, relative effectiveness (CHO cells): approximately equal to mono-ANT | inhibition of cleavage with BamHI (plasmid pSV2-gpt DNA; approximately 50 mM): At least 10%

COCC(O)Cn1cc[n+]([Pt-2]([NH3+])([Cl])[Cl])c1[N+](=O)[O-] (stereo not drawn) [cis-mono-MISO, PtCl2 (NH3) (misonidazole)]
toxicity in hypoxia versus in air ([1]; 100 mM/dm^3, aerobic and hypoxic cells, FIG. 1): toxicity is greater in hypoxia than in air | toxicity compared with MISO alone and cisDDP ([1]; complex 100 mM/dm^3, cis-DDP at 10 mM/dm^3): more toxic than MISO alone, although less toxic than cisDDP | IC50 ([2]; listed as cis mono MISO): 8.5 mM | ER (CHO cells; 100 mmol/dm^3): 1.25 | sensitization in oxygen (CHO cells): no sensitization

N.O=[N+]([O-])c1cnc[nH]1.[Cl][Pt][Cl] [mono-5NI, PtCl2 (ammine)(5-nitroimidazole)]
enhancement ratio (ER) (CHO cells; [5]): 1.28 | binding to DNA, relative (plasmid pSV2-gpt DNA): more effective binding to DNA at all concentrations than cis-mono-4NI; neither bound as well, however, as cis-DDP

N.N.[Cl][Pt+2][Cl] [trans-DDP, transdichlorodiamine platinum II]
Survival rate ([1]; 100 mM/dm^3): 0.2 | toxicity compared with the compounds of the invention [1]: somewhat less toxic | approximate order of hypoxic toxicity of platinum complexes [1]: cis-DDP ff trans-mono-MISO f monoammine Z cis-mono-MISO f trans-DDP f mono-METRO Z mono-NI f mono-ANT | IC50 [2]: 22 mM | ER (CHO cells; 100 mmol/dm^3): 1.3 | platinum bound to the extracted DNA (DNA of CHO cells): 5 ng Pt/10^6 cells | IC50 ([3]; L1210, cDDP resistant line, read-out: ID50 (the source's name)): 66 mM | Ratio (ID50 cDDP resistant/cDDP sensitive) [3]: 3

N.O=[N+]([O-])c1ccc2ncccc2c1.[Cl][Pt][Cl] [mono-6NQ, [PtCl2 (NH3)(6-nitroquinoline)]
toxicity compared with 6NQ alone ([1]; FIG. 5): much higher toxicity than 6NQ alone | plating efficiency ([1]; after an hour, 60 min): 0

N.O=[N+]([O-])c1c[nH]cn1.[Cl][Pt][Cl] [mono-4NI, PtCl2 (ammine)(4-nitroimidazole)]
approximate order of hypoxic toxicity of platinum complexes [1]: cis-DDP ff trans-mono-MISO f monoammine Z cis-mono-MISO f trans-DDP f mono-METRO Z mono-NI f mono-ANT | enhancement ratio (ER) (CHO cells; [4]): 1.16 | enhancement ratio (ER) (CHO cells; [5]): 1.16 | radiosensitization, relative effectiveness (CHO cells): somewhat more effective than mono-ANT | binding to DNA, relative (plasmid pSV2-gpt DNA): neither bound as well, however, as cis-DDP

N.[Cl][Pt-]([Cl])[Cl].[K+] [monoammine, K[PtCl3 (NH3)]]
Survival rate ([1]; 100 mM/dm^3): 0.1 | toxicity compared with the compounds of the invention [1]: somewhat more toxic than the compounds of the invention | approximate order of hypoxic toxicity of platinum complexes [1]: cis-DDP ff trans-mono-MISO f monoammine Z cis-mono-MISO f trans-DDP f mono-METRO Z mono-NI f mono-ANT | ER (CHO cells; 100 mmol/dm^3): 1.2 | inhibition of BamHI cleavage (plasmid pSV2-gpt DNA; 160 mM (level not reached until this concentration)): 30% | binding to DNA as indicated by enzyme inhibition (plasmid pSV2-gpt DNA; 1 hr at 37° C.): showed binding to the DNA as indicated by enzyme inhibition

N.Nc1ncc([N+](=O)[O-])s1.[Cl][Pt][Cl] [mono-ANT, PtCl2 (ammine)(2-amino-5-nitrothiazole)]
approximate order of hypoxic toxicity of platinum complexes [1]: cis-DDP ff trans-mono-MISO f monoammine Z cis-mono-MISO f trans-DDP f mono-METRO Z mono-NI f mono-ANT | enhancement ratio (ER) (CHO cells; [4]): 1.15 | inhibition of cleavage with BamHI (plasmid pSV2-gpt DNA; 320 (unit uncertain)): At least 10%

O=[N+]([O-])c1ccc2ncccc2c1 [6NQ, 6-nitroquinoline]
effect on plating efficiency ([1]; after 3 hours): no effect

COCC(O)Cn1ccnc1[N+](=O)[O-] (centres unmarked) [MISO]
toxicity ([1]; 100 mM/dm^3): no toxicity | order of toxicity of free ligand [1]: 4-nitroimidazole f MISO f ANT f METRO | ER (CHO cells; 100 mmol/dm^3): 1.3 | ER (CHO cells; 250 mmol/dm^3): 1.4 | sensitization in oxygen (CHO cells): no sensitization | sensitizing cells to radiation treatment in clinical trials (cells): beneficial effects in sensitizing cells to radiation treatment

O=[N+]([O-])c1nccn1CC(O)CN1CC1 (centres unmarked) [RSU-1069]
side effects (tumors; chemotherapy): high incidence of side effects | amount of RSU-1069 required for effectiveness with 5-hydroxytryptamine or hydralazine (tumors; coadministration of 5-hydroxytryptamine or hydralazine): can be reduced by administration of 5-hydroxytryptamine or hydralazine | enhancement of effect of RSU-1069 by hydralazine (tumors; hydralazine 5 mg/kg or 30 mg/kg, RSU-1069 0.1 mg/g IP, within three hours): enhance the effect of RSU-1069
